From PubChem BioAssay (NCI)
Where “and” joins values, the source holds several entries; their conditions need not be identical. Identical values can stand only once.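 Five compound concentrations were applied to cells in 96-well plates for 48 hours; endpoints were derived by simple linear interpolation of the resulting dose-response curve. GI50 is the concentration that inhibits growth by half. Definition used: TGI = concentration required for complete inhibition of growth.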

Experiments:
Experiment in all cases: NCI tumour cell line growth inhibition, 48 h
NCI-H522 lung = tested on: NCI-H522 lung
HCT-15 colon = tested on: HCT-15 colon
HCT-116 colon = tested on: HCT-116 colon
A498 renal = tested on: A498 renal
HS 578T breast = tested on: HS 578T breast
CCRF-CEM leukemia = tested on: CCRF-CEM leukemia
UO-31 renal = tested on: UO-31 renal
SF-539 CNS = tested on: SF-539 CNS
NCI-H226 lung = tested on: NCI-H226 lung
HOP-62 NSCLC = tested on: HOP-62 NSCLC

Compound	GI50 (NCI-H522 lung)	GI50 (HCT-15 colon)	TGI (HCT-15 colon)	GI50 (HCT-116 colon)	TGI (HCT-116 colon)	GI50 (A498 renal)	TGI (A498 renal)	GI50 (HS 578T breast)	TGI (HS 578T breast)	GI50 (CCRF-CEM leukemia)	TGI (CCRF-CEM leukemia)	GI50 (UO-31 renal)	TGI (UO-31 renal)	GI50 (SF-539 CNS)	TGI (SF-539 CNS)	GI50 (NCI-H226 lung)	TGI (NCI-H226 lung)	GI50 (HOP-62 NSCLC)	TGI (HOP-62 NSCLC)	TGI (NCI-H522 lung) [µM]
O=C1NC(=O)[C@@H](c2cn3c4c(cccc24)CCC3)[C@@H]1c1c[nH]c2ccccc12	0.201 µM and 0.365 µM	0.338 µM and 0.505 µM	> 10 µM and 14.9 µM	0.377 µM and 0.458 µM	> 6.16 µM and 10.6 µM	0.283 µM and 0.292 µM	> 2.68 µM and 3.22 µM	0.343 µM and 0.323 µM	> 10 µM and 20.9 µM	0.288 µM and 0.429 µM	> 10 µM and 41.2 µM	0.552 µM and 0.519 µM	> 10 µM and 27.1 µM	0.319 µM and 0.337 µM	2.39 µM and 5.25 µM	> 2.61 µM and 1.48 µM	> 10 µM and 17.9 µM	0.423 µM and 0.465 µM	> 10 µM and 16.8 µM	
CCOC(=O)Oc1c(OC)cc(C(=O)c2ccc(OC)c(OC(=O)CCl)c2OC)cc1OC	0.264 µM	0.415 µM	> 100 µM	0.494 µM	36.2 µM	3 µM	16.6 µM	0.556 µM	> 100 µM	0.662 µM	> 100 µM	3.07 µM	> 100 µM	0.805 µM	6.38 µM	4.38 µM	37.9 µM	0.836 µM	> 100 µM	1.31
C=C1C(=O)O[C@H]2[C@H]1CC/C(COC(=O)/C=C/c1cccnc1)=C\CC[C@@]1(C)O[C@@H]21	1.33 µM	1.11 µM	2.71 µM	0.371 µM	1.52 µM	4.11 µM	16.3 µM	4.22 µM	36 µM	0.338 µM	3.73 µM	1.11 µM	2.51 µM	1.5 µM	2.97 µM	2.68 µM	9.98 µM	11.5 µM	24.6 µM	3.48
C=C1C(=O)OC2C1C(OC(=O)/C(C)=C/C)CC(O)(CCl)C1C(OC(C)=O)C=C(C)C21O (centres undefined)			21.7 µM		20.8 µM		> 53.6 µM		> 100 µM		17.6 µM		35 µM		41 µM		> 61.3 µM		> 66 µM	5.94
O=c1oc2ccccc2cc1-c1ccc([N+](=O)[O-])cc1			> 100 µM		> 100 µM		> 100 µM		> 100 µM		> 100 µM		> 100 µM		> 100 µM		> 100 µM		> 100 µM	> 100
CC(C)(C)[Si](C)(C)OC1[C@@H](O[Si](C)(C)C(C)(C)C)[C@@H](CNC(=O)NC(=O)NC(=O)CI)O[C@H]1n1cnc2c(NC(=O)Nc3ccccc3)ncnc21 (some centres undefined)	0.0262 µM	9.81 µM	31.8 µM	2.82 µM	9.08 µM	3.61 µM	11.4 µM	2.5 µM	17.8 µM	0.0301 µM	0.102 µM	0.0888 µM	0.178 µM	0.441 µM	1.16 µM	10.4 µM	20.6 µM	0.392 µM	1.28 µM	0.0522
Cc1cc(Cl)ccc1NC(=O)/C(Cc1nc2ccc(C(=O)c3ccccc3)cc2[nH]c1=O)=N/NC(=O)c1ccncc1			> 100 µM		> 100 µM		> 100 µM		> 100 µM		> 100 µM		> 100 µM		> 100 µM		> 100 µM		> 100 µM	> 100
